Positions count from the first letter of the chain named.
Legend:
Dab2 SBP [1] = biological target: T1, Dab2 SBP (Homo sapiens, UniProt P98082); experiment: SPR, L1 sensorchip, sulfatide liposomes captured; assay type: binding; settings: apparent KD; peptide 1-80 µM over 100-nm DPPC:DPPE:cholesterol:sulfatide (1:1:1:4) liposomes; pH 7.4, 100 mM NaCl, room temperature; brain sulfatides of mixed acyl chains
T1 construct: pGEX6P1; vector residues GPLGS remain at N-terminus of cleaved peptide
T1 sequence (P98082 24-58): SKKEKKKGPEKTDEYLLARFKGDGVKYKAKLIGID

Dab2 SBP [2] = biological target: T2, Dab2 SBP (Homo sapiens, UniProt P98082, Y38A); experiment: SPR, L1 sensorchip, sulfatide liposomes captured; assay type: binding; settings: apparent KD; peptide 1-80 µM over 100-nm DPPC:DPPE:cholesterol:sulfatide (1:1:1:4) liposomes; pH 7.4, 100 mM NaCl, room temperature; brain sulfatides of mixed acyl chains
T2 construct: pGEX6P1; vector residues GPLGS remain at N-terminus of cleaved peptide
T2 sequence (P98082 24-58 Y38A): T1 sequence (P98082 24-58) with Y15A

- Kd (Dab2 SBP [1]): 49.8 ± 5.4 µM
- Kd (Dab2 SBP [2]): 77 ± 6.6 µM
Substance: sulfatide

Reference: publication PMC7421900, “Structural, in silico, and functional analysis of a Disabled-2-derived peptide for recognition of sulfatides” (Scientific Reports, 2020)
